Laboratory results reported in paper PMC2115601 (The Journal of Cell Biology, 1989).
Residues, ends and D or L forms follow the SMILES beside them.

Key:
ADP-stimulated platelets = ADP-stimulated platelets (Homo sapiens, UniProt P05106+P08514); experiment: Inhibition of 125I-fibrinogen binding to ADP-stimulated platelets; conditions: for IC50: read-out: IC50 Platelets (Table III), mean of three separate experiments; for Extent of inhibition of fibrinogen binding to platelets: high concentrations of peptide
endothelial cells [1] = target: T1, endothelial cells (UniProt P05106+P06756); experiment: Inhibition of 125I-fibrinogen binding to endothelial cells in suspension; set-up: species or system human; conditions: for Extent of inhibition of fibrinogen binding to endothelial cells: high concentrations of peptide
washed platelets = experiment: Fibrinogen-dependent aggregation of washed platelets; assay type: cell-based, human; conditions: 2 mM peptide, 20 μM ADP, medium 199
endothelial cells [2] = target: T1, endothelial cells; experiment: Endothelial cell spreading on fibrinogen; assay type: cell-based, human; conditions: 2 mM peptide, medium 199, 2% BSA

T1 sequence (P06756 31-1048): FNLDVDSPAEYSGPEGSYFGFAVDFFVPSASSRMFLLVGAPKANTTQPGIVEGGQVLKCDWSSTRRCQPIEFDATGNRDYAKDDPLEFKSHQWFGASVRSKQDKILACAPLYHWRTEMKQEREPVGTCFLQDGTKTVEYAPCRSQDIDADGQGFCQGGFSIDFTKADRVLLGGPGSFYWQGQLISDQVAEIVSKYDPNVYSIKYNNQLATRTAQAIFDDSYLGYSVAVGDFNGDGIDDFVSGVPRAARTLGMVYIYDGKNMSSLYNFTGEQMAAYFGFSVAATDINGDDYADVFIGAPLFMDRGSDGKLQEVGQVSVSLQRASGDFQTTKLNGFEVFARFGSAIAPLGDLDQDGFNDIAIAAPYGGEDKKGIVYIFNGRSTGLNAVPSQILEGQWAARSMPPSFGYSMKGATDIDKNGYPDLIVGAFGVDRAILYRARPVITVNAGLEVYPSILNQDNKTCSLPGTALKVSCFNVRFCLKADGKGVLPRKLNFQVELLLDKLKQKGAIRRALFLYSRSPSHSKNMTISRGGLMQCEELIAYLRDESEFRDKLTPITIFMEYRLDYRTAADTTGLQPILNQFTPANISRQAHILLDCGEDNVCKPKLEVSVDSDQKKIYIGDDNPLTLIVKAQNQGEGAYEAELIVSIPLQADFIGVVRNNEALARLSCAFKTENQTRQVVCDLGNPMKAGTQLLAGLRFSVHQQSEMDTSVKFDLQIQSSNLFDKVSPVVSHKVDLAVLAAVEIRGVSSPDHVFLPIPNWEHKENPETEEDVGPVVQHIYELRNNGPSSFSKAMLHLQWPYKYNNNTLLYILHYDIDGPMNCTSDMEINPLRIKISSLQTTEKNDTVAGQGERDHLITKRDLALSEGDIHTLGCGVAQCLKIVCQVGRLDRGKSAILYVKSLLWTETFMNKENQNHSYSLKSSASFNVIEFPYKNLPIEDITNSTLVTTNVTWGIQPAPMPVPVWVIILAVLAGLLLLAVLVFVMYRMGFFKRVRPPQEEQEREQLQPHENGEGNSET
T1 sequence (P05106 27-788): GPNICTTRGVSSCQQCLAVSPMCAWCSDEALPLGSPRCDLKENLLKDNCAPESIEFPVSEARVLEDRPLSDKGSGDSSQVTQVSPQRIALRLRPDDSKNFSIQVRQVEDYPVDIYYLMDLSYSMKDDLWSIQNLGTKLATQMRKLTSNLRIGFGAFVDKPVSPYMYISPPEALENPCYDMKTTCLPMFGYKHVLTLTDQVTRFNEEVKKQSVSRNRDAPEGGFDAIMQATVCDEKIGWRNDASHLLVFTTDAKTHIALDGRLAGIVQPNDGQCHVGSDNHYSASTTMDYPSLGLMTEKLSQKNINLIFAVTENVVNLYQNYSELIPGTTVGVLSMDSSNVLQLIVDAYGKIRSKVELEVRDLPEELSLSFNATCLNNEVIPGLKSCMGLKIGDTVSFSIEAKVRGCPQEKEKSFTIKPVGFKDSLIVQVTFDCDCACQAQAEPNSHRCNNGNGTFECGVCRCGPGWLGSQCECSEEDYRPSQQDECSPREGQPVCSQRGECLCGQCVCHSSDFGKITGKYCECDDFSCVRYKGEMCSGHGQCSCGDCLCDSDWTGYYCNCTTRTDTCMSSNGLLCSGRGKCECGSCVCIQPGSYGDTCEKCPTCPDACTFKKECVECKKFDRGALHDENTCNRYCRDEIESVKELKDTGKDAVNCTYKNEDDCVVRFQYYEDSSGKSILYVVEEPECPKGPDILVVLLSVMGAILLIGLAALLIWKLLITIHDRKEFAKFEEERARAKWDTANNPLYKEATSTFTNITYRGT
T1 sequence (P02671 36-866 partner): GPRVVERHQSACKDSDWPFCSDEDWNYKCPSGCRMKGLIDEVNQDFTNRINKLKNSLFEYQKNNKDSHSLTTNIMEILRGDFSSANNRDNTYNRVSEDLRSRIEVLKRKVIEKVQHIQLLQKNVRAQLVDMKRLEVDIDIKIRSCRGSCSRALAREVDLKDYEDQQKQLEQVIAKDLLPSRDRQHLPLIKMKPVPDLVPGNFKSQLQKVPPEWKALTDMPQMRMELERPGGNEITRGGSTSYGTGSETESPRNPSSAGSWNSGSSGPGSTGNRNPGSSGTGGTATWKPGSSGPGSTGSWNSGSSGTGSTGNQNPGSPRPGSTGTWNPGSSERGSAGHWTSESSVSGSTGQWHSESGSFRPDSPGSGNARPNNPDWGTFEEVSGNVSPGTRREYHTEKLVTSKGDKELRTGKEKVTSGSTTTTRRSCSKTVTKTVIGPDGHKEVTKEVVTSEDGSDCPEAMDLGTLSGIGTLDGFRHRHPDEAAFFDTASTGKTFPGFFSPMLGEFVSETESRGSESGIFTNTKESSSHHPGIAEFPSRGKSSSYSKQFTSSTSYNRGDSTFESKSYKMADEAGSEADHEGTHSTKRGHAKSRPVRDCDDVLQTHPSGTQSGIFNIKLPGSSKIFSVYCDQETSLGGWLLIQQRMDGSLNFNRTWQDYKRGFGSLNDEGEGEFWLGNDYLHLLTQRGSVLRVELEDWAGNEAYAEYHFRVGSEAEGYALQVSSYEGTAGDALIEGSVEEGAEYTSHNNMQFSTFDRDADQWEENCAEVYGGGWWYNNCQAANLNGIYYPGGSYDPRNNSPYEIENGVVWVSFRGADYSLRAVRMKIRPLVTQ
T1 sequence (P02675 45-491 partner): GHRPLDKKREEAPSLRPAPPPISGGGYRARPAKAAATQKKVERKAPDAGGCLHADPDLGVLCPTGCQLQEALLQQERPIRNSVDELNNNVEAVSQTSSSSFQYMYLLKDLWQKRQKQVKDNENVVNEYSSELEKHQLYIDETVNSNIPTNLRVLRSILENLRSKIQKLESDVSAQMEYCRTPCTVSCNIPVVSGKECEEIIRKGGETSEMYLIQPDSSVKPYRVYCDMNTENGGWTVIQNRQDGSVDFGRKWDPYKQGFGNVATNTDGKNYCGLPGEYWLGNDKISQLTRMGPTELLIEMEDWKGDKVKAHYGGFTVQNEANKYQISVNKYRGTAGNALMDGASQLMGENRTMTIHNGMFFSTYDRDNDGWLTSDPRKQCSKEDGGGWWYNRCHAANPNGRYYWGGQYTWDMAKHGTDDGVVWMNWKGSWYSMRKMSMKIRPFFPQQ
T1 sequence (P02679 27-453 partner): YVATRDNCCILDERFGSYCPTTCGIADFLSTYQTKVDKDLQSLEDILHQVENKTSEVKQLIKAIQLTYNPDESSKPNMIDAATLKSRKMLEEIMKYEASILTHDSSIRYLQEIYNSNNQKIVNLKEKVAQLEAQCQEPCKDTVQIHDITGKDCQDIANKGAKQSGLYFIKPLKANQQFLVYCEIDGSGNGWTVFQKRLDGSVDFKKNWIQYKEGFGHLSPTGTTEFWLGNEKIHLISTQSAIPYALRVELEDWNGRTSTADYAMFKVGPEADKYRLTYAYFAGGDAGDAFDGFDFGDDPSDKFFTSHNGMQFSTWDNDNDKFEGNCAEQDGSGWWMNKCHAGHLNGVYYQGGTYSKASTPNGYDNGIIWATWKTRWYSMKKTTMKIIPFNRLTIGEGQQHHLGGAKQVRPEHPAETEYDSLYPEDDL
ADP-stimulated platelets, sequence (P08514 32-1039): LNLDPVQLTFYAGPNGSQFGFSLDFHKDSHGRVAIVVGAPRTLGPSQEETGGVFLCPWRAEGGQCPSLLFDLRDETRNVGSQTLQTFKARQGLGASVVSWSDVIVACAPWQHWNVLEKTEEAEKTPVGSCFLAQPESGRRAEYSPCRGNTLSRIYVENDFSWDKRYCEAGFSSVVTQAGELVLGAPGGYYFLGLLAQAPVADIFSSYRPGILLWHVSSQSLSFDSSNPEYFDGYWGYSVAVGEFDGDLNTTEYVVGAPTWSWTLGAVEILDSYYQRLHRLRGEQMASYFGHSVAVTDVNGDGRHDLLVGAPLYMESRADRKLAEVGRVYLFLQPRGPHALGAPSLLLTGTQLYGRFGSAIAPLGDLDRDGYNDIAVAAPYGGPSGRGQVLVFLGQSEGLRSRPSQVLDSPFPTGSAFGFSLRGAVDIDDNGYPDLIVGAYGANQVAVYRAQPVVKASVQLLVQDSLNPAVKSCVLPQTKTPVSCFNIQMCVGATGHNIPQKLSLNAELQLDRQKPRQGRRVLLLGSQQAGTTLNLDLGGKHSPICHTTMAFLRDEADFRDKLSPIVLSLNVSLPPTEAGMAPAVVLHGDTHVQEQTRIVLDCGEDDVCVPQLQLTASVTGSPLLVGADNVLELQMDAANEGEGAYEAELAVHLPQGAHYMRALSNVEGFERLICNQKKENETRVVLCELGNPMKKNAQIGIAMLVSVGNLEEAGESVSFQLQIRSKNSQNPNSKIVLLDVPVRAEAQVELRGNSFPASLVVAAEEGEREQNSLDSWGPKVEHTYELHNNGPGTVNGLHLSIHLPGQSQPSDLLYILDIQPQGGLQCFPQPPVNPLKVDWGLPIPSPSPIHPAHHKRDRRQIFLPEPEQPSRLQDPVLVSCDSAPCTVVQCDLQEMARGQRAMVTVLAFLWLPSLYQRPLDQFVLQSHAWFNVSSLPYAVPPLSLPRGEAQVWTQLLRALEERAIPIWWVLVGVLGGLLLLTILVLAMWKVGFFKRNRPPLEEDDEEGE
ADP-stimulated platelets, sequence (P05106 27-788): as the sequence (P05106 27-788) above
ADP-stimulated platelets, sequence (P02671 36-866 partner): as the sequence (P02671 36-866 partner) above
ADP-stimulated platelets, sequence (P02675 45-491 partner): as the sequence (P02675 45-491 partner) above
ADP-stimulated platelets, sequence (P02679 27-453 partner): as the sequence (P02679 27-453 partner) above

Extent of inhibition of fibrinogen binding to platelets (ADP-stimulated platelets) | Extent of inhibition of fibrinogen binding to endothelial cells (endothelial cells [1]) | SMILES | IC50 (ADP-stimulated platelets) [µM] | Potency on endothelial cells relative to platelets (endothelial cells [1]; fibrinogen binding inhibition) | Inhibition Platelet aggregation (washed platelets) [%] | Endothelial cell spreading (endothelial cells [2])
– | – | CC(C)[C@H](NC(=O)[C@H](CC(=O)O)NC(=O)CNC(=O)[C@H](C)NC(=O)[C@H](CCC(N)=O)NC(=O)[C@@H](N)Cc1c[nH]cn1)C(=O)O [HQAGDV] (H-HQAGDV-OH; N-terminus assumed) | > 1000 | at least fivefold | 0 | + +
complete | only partially inhibited | CC(C)C[C@H](NC(=O)[C@H](Cc1c[nH]cn1)NC(=O)[C@@H](N)Cc1c[nH]cn1)C(=O)NCC(=O)NCC(=O)N[C@@H](C)C(=O)N[C@@H](CCCCN)C(=O)N[C@@H](CCC(N)=O)C(=O)N[C@@H](C)C(=O)NCC(=O)N[C@@H](CC(=O)O)C(=O)N[C@H](C(=O)O)C(C)C [H12] (H-HHLGGAKQAGDV-OH; N-terminus assumed) | – | – | – | –
– | – | CC(C)[C@H](NC(=O)[C@H](CC(=O)O)NC(=O)CNC(=O)[C@H](C)NC(=O)[C@H](CCC(N)=O)NC(=O)[C@@H](N)CCCNC(=N)N)C(=O)O [RQAGDV] (H-RQAGDV-OH; N-terminus assumed) | > 1000 | – | – | –
complete | only partially inhibited | CC(C)[C@H](NC(=O)[C@H](CC(=O)O)NC(=O)CNC(=O)[C@H](C)NC(=O)[C@H](CCC(N)=O)NC(=O)[C@H](CCCCN)NC(=O)[C@H](C)NC(=O)CNC(=O)CN)C(=O)O [G9] (H-GGAKQAGDV-OH; N-terminus assumed) | – | – | – | –
